Test results published in publication PMC5087326 (Biochemical and biophysical research communications, 2016).

Experiments:
LXRβ = target: T1, LXRβ (Homo sapiens, UniProt P55055); assay: LXRE-driven luciferase cotransfection assay in HEK293 cells; format: cell-based
T1 sequence (P55055 1-460): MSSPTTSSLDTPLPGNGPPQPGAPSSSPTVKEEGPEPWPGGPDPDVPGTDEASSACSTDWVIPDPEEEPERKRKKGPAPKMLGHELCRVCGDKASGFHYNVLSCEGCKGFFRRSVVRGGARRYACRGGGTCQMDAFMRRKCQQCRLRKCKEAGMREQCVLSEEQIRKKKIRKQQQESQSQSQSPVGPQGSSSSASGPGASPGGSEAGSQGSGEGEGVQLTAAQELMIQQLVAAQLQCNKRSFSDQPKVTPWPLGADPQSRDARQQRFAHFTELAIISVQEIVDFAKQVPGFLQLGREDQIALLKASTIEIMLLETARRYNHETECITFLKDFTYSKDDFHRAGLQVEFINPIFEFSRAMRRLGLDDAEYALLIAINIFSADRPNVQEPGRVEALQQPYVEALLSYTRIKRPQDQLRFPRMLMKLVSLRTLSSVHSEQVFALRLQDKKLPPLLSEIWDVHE

LXRα = target: T2, LXRα (Homo sapiens, UniProt Q13133); assay: Luminex coregulator peptide recruitment with LXRα LBD at […]; format: cell-based
T2 sequence (Q13133 209-447 limits assumed): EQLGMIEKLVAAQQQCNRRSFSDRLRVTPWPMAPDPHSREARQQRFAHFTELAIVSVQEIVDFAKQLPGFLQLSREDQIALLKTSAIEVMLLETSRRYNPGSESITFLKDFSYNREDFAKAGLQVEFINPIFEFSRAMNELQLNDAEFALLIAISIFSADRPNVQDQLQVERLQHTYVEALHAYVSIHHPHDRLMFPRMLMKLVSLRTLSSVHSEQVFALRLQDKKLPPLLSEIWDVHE

IC50 (LXRβ): 9 nM | IC50 (LXRα): 17 nM
SMILES: Cc1cc(C)c(S(=O)(=O)N(Cc2ccc(-c3cccc(S(C)(=O)=O)c3)cc2)Cc2ccc(C(F)(F)F)o2)c(C)c1 [GSK2033]
